Laboratory results: patent US20240315994A1, “SMALL MOLECULE MODULATORS OF FERROPTOSIS” (ARPEGGIO BIOSCIENCES, INC., priority 2021, published 2024)

Columns and labels:
[1] = tested on: HT-1080 fibrosarcoma cells; test: HT-1080 viability dose response in presence or absence of ferrostatin-1 or liproxstatin-1; format: cell-based; conditions: HT-1080 cells, 100 μM to 100 nM, 48 hours, with/without 1.5 μM ferrostatin-1
Method: To determine whether the reduction in cell viability by the compounds identified in FIG. 1 is driven by induction of ferroptosis, we performed dose response curves for each compound in the presence or absence of ferrostatin-1 or liproxstatin-1, which prevent ferroptosis by functioning as radical trapping antioxidants at cellular membranes. Briefly, HT-1080 fibrosarcoma cells were plated 24 hours prior to treatment with a range of concentrations of each inhibitor compound ranging from 100 μM to 100 nM in the presence or absence of 1 μM liproxstatin-1 or 1.5 µM ferrostatin-1. Cell Titer Glo® was used to read out cell viability after 48 hours compound exposure. Data was collected in triplicate.
Compounds from the Enamine covalent inhibitor library with similar structures to compounds 8216, 6666 or 1816 were further screened for inducing cell death via ferroptosis. Briefly, HT-1080 fibrosarcoma cells were plated on black-sided clear bottom plates 24 hours prior to treatment, with or without the addition of 2× ferrostatin-1, which inhibits the process of ferroptosis and rescues cells from undergoing this form of cell death. Compounds were diluted in DMSO and media then added to the cells for a total of 24 hours at which point cell viability was read out via Cell Titer Glo. Compounds were tested at […] ranging from 50 μM to 5 nM at half log dilutions.
FIG. 14 is a panel of plots 1400 showing relative viability of HT-1080 fibrosarcoma cells exposed to 15 inhibitor compounds with similar structures to 8216, 6666, or 1816 tested over a range of concentrations from 50 μM to 5 nM at half log dilutions in the presence of (red line) and absence of (black line) 1.5 μM ferrostatin-1. Ferrostatin-1 is a lipophilic antioxidant which inhibits the process of ferroptosis and rescues cells from undergoing this form of cell death. The black line is the relative HT-1080 fibrosarcoma cell viability in the absence of ferrostatin-1 and the red line is the relative HT-1080 fibrosarcoma cell viability in the presence of 1.5 μM ferrostatin-1. HT-1080 fibrosarcoma cells were plated on side-blackened, clear bottom plates 24 hours prior to treatment, with or without the addition of 2× ferrostatin-1. Each compound was diluted in DMSO and media and then added to the cells for a total of 24 hours, at which point cell viability was read out via Cell Titer Glo.

recombinant GPX4 protein = molecular target: T1, recombinant GPX4 protein (Homo sapiens, UniProt P36969); test: Intact protein mass spectrometry binding to recombinant GPX4; conditions: for binding to recombinant GPX4 in vitro / number of binding events / sites on GPX4 (mass shifts): intact protein mass spectrometry, 2 hours incubation
T1 construct: purchased Cayman Chemical SO960203
T1 sequence (P36969 1-197): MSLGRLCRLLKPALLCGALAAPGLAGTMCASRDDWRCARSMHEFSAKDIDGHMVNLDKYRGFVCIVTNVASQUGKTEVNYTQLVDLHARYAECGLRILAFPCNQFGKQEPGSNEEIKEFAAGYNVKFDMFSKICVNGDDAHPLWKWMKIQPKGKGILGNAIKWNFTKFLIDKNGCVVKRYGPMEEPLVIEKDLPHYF
Text: To determine whether the five ferroptosis-inducing compounds identified in FIG. 3 and FIG. 4 could function through direct binding and inhibition of GPX4, we tested binding of each compound to recombinant GPX4 protein in vitro by intact protein mass spectrometry. Intact mass analysis is the assessment of a protein's total molecular weight by mass spectrometry without prior digestion or fragmentation of the molecule of interest. Covalent binding of a potential inhibitor to GPX4 can be detected by a shift in the mass of the intact protein. For the intact protein analysis, we used ML162, a well-characterized GPX4 inhibitor (available from Sigma Aldrich), as a positive control. […] Briefly, compounds were incubated with recombinant GPX4 protein in vitro for 2 hours before quenching with trifluoroacetic acid (TFA) and analysis by mass spectroscopy.
To determine whether the ferroptosis-inducing compounds 6666 and 8147 could function through direct binding and inhibition of GPX4, we tested binding of each compound to recombinant GPX4 protein in vitro by intact protein mass spectrometry. Compound 8216 was used as a positive control (see FIG. 6). Briefly, 15 μL of GPX4 protein (Cayman Chemical cat #SO960203]) was incubated with 100 µM of each compound ([…]) and diluted with 25.5 μl of PBS. The incubation was performed at room temperature for 2 hours and then the reaction was quenched with 3 μL of trifluoroacetic acid. Samples were subjected to UPLC coupled to Synapt G2 mass spectrometer to evaluate if binding of the test compound to GPX4 occurs. Binding is evident by a mass shift equivalent to the mass size of the compound minus a chlorine atom plus the mass size of the GPX4 protein, as described by the manufacturer.

[2] = tested on: HMOX1 expression in HT-1080 fibrosarcoma cells; test: HMOX1 induction by RT-qPCR in HT-1080 cells; format: cell-based; conditions: for HMOX1 induction (RT-qPCR): 10 μM or 5 μM, four hours, normalized to ACTB, relative to DMSO
Method: We tested several of our ferroptosis-inducing compounds for their ability to rapidly induce HMOX1 by RT-qPCR. Briefly, HT-1080 fibrosarcoma cells were treated with either 10 µM or 5 µM of compound RSL3, 8216, 1962, 1816, or 3362 for four hours. RNA was isolated and reverse transcribed and HMOX1 expression quantified by qPCR. Each sample was normalized to an ACTB housekeeping gene control and fold change was calculated relative to a DMSO control.
We tested several of the ferroptosis-inducing compounds for their ability to rapidly induce expression of HMOX1. Briefly, HT-1080 fibrosarcoma cells were plated in 6-well dishes 24 hours prior to treatment with 5 μM of 8147, 6047, 3793, Rsl3, 6666 or 8216 with and without the addition of ferrostatin-1 to the media. Cells were harvested from the plate after 4 hours of compound treatment by adding Trizol reagent directly to the plate to lyse the cells and preserve the RNA. RNA was isolated using the Direct-zol 96-well RNA kit (Zymo cat #R2054). Subsequently purity and quantity of RNA in the samples were measured using a Nanodrop (Thermo Fisher cat #ND-ONE-W). RNA samples were normalized to 2 μg and reverse transcribed to cDNA using the Multiscribe High-Capacity Reverse Transcription kit (Thermo Fisher cat #4368814) following manufacturer's instructions. Quantitative real time PCR was carried out in triplicate using SYBR Select Master Mix (Thermo Fisher cat #4472903) following manufacturer's instructions with primers designed against HMOX1 and ActB from IDT. HMOX1 expression levels were normalized to ActB for each sample then fold change was determined against the vehicle control, DMSO.

| mass shift of GPX4 (binding) (recombinant GPX4 protein; 100 μM compound, room temperature, 2 hours, UPLC-Synapt G2) | binding to recombinant GPX4 in vitro (recombinant GPX4 protein) | number of binding events / sites on GPX4 (mass shifts) (recombinant GPX4 protein) | SMILES | cell death and rescue by ferrostatin-1 [1] | HMOX1 upregulation and rescue by ferrostatin-1 (RT-qPCR) ([2]; 5 μM, 4 hours, with and without ferrostatin-1) | HMOX1 induction (RT-qPCR) [2] |
| --- | --- | --- | --- | --- | --- | --- |
| demonstrate a mass shift | capable of binding GPX4 | bind either 1, 2, or 3 times | O=C(CCl)N(Cc1ccc(F)cc1)C1CCCCC1 [Compound 8216] | cell death that was rescued by the addition of the antioxidant ferrostatin-1 | upregulation of HMOX1 which was rescued by the addition of ferrostatin-1, to varying degrees | remarkably similar dose-dependent HMOX1 induction |
|  |  | bind either 1, 2, or 3 times | CCOc1ccc(C[C@@H]2c3cc(OCC)c(OCC)cc3CCN2C(=O)CCl)cc1OCC [Compound 3362] | cell death that was rescued by the addition of the antioxidant ferrostatin-1 |  | results in induction of HMOX1 |
|  | capable of binding GPX4 | can bind GPX4 either 2, 3, or 4 times | O=C(CCl)N1c2ccccc2OC[C@@H]1c1ccccc1 [Compound 1962] | cell death that was rescued by the addition of the antioxidant ferrostatin-1 |  | did not lead to dose responsive induction of HMOX1 |
|  | capable of binding GPX4 | display a single mass shift | CCCCCN(C(=O)CCl)c1c(N)n(CCCC)c(=O)[nH]c1=O [Compound 1816] | cell death that was rescued by the addition of the antioxidant ferrostatin-1 |  | did not induce HMOX1 |
